{
  "source": "patent US11506670B2",
  "about": "“Method of genome-wide direct identification of electrophile-sensing targets” (Cornell University, priority 2018, dated 2022)",
  "key": {"NF-κB-signaling (Ube2V1)": {"system": "NF-κB-signaling (Ube2V1)", "experiment": "NF-κB dual luciferase reporter assay after T-REX on Halo-Ube2V1", "assay_type": "cell-based, human", "settings": "T-REX HNEylation of Ube2V1, coexpression of Ube2N", "description": "1.5-1.6×10^5 HEK 293T cells were seeded in each well of a 48-well plate. 24 h later, the cells were transfected with 120 ng of the designated HaloTag fusion gene plasmid and 120 ng of NF-kB-Firefly luciferase: pCMV-Renilla luciferase (40:1) mix, using TransIT-2020 transfection agent. 24 h post-transfection, cells were treated with 25 μM Ht-PreHNE or vehicle (corresponding volume of DMSO alone) for 2.5 h, rinsed three times and irradiated with 365 nm UV light for 10 min. The cells were incubated for a further 8 h. For dual luciferase assay, cells in each well were gently washed with 1×DPBS and lysed in 65 μL of 1× passive lysis buffer containing in final concentrations 25 mM Tris (pH 7.8), 2 mM 1,2-CDTA, 2 mM DTT, 1 mg/mL BSA, 1% Triton X-100, and 10% Glycerol. 20 μL of the lysate was transferred to a white opaque 96-well plate (Corning). Firefly luciferase was read after adding 50 μL Firefly substrate (75 mM HEPES pH 8.0, 4 mM MgSO4, 20 mM DTT, 0.1 mM EDTA, 0.53 mM ATP, 0.27 mM Coenzyme-A, 0.47 mM D-Luciferin Firefly). Subsequently, 50 μL of Stop and Glow substrate (7.5 mM sodium acetate pH 5.0, 400 mM sodium sulfate, 10 mM CDTA, 15 mM sodium pyrophosphate, 0.025 mM APMBT, 5.5 μM Coelenterazine) was added and Renilla luciferase activity was measured."}, "[1]": {"system": "Ube2V2 ubiquitination and cellular Ub pools", "experiment": "Ubiquitination analysis by IP, K63-TUBE pulldown and western blot in HEK293T cells", "assay_type": "cell-based, human", "description": "Cells were lysed in 1×RIPA buffer containing in final concentrations 1× Protease inhibitor, 1 mM sodium orthovanadate and 1 mM PMSF, by rapid freeze-thaw (×3). Cell debris was removed and the supernatant was collected after centrifugation at 18,000×g for 20 min at 4° C. Protein concentration was determined using Bradford assay. 30-50 μg of total lysates were subjected to SDS-PAGE and the gel was transferred onto a PVDF membrane at 100 V for 1 h at 4° C. or at 40 V overnight at 4° C. Membrane was blocked with 10% milk and probed with various antibodies at the indicated dilutions (Table 4, above).\nHEK 293T cells were seeded in 2×60 cm^2 plates. After the cells reached 60% confluence (˜18-24 h), the old media was replaced with 8 mL of fresh complete media. Cells were transfected with 7.5 μg of the designated Halo clone and 30 μL PEI (1 mg/mL) in 600 μL in Opti-MEM media for 24-36 h after which the cells were treated with 25 μM Ht-PreHNE for 2.5 h. Rinsing and light shining protocol were as described above. Cells were harvested, pooled, washed twice with chilled 1×DPBS and flash frozen. Cell lysis was performed in 100-200 μL per 1.5×10^6 cells of either: lysis buffer [containing in final concentrations 50 mM HEPES (pH 7.6), 150 mM NaCl, 1% Nonidet P-40 and 1× Roche cOmplete, mini, EDTA-free protease inhibitor cocktail] for Flag pull down; or RIPA buffer [containing in final concentrations 50 mM HEPES (pH 7.6), 150 mM NaCl, 1% Nonidet P-40, 0.1% SDS, 0.25% sodium deoxycholate, and 1× Roche cOmplete, mini, EDTA-free protease inhibitor cocktail] for HA pull down, followed by rapid freeze-thaw cycles (×3). Lysate was clarified by centrifugation at 18,000×g for 10 min at 4° C. Total protein concentration was determined using Bradford assay with BSA as standard. The lysate was subsequently diluted to 2 mg/mL with binding buffer containing in final concentrations 50 mM HEPES (pH 7.6), 150 mM NaCl, 1× Roche cOmplete, mini, EDTA-free protease inhibitor cocktail, and 0.1% Tween-20. This diluted lysate was subjected to either 50-100 μL bed volume of ANTI-FLAG® M2 affinity gel (A2220, Sigma) or monoclonal anti-HA-agarose (clone HA-7, A2095, Sigma) that had been pre-equilibrated with the binding buffer above. The sample was incubated with beads for 2-3 h at 4° C. by end-over-end rotation after which time the supernatant was removed post-centrifugation at 1000×g (anti-FLAG pull down) or 5000×g (anti-HA pull down) for 3 min. The beads were washed three times at 4° C. with 500 μL wash buffer containing in final concentrations 50 mM HEPES (pH 7.6), 150 mM NaCl, 1× Roche cOmplete, mini, EDTA-free protease inhibitor cocktail, and 0.1% Tween-20, using end-over-end rotation over 10 min during each wash. The bound protein was eluted by either incubating with 0.15 mg/mL 3× flag peptide for 2 h at 4° C. (anti-Flag pull down) or by boiling the beads at 98° C. for 10 min with 30 μL of 3× Laemmeli dye containing 6% βME (anti-HA pull down). The sample was subjected to SDS-PAGE and transferred to a PVDF membrane for western blot analysis described above.\nCells were grown and transfected as described above. After T-REX™ delivery, cells were harvested and lysed in 100-200 μL (˜1.5×10^6 cells) of lysis buffer [containing in final concentrations 50 mM HEPES (pH 7.6), 300 nM Biotin K63-TUBE, 150 mM NaCl, 5 mM EDTA, 3 mM 1,10-phenanthroline, 5 mM NEM, 20 μM PR-619, 1% Nonidet P-40 and 1× Roche cOmplete, mini, EDTA-free protease inhibitor cocktail] according to manufactures' manual (Biotin K63 TUBE, Lifesensors). Lysate was clarified by centrifugation at 18,000×g for 10 min at 4° C. Total protein concentration was determined using Bradford assay using BSA as standard. […]"}},
  "data": [
    {"smiles": "CCCCCC(O)/C=C/C=O", "note": "(stereo not shown) [HNE, 4-hydroxynonenal]", "values": [
      {"measurement": "upregulation in NF-κB-signaling relative to all controls", "setting": "NF-κB-signaling (Ube2V1)", "result": 3, "unit": "fold"},
      {"measurement": "K63-linked total cellular Ub pools", "setting": "[1]; HEK293T", "result": "did not alter K63-linked total cellular Ub pools"},
      {"measurement": "pan cellular poly-Ub-pools", "setting": "[1]; HEK293T", "result": "no effect"},
      {"measurement": "K63-linked ubiquitination of Ube2V2 upon T-REX delivery", "setting": "[1]; cells expressing wt-Ube2V2, not C69S", "result": "significantly upregulated"}
    ]}
  ]
}
